Test results from US20230167118A1, “DEGRADATION OF BRUTON'S TYROSINE KINASE (BTK) BY CONJUGATION OF BTK INIDBITORS WITH E3 LIGASE LIGAND AND METHODS OF USE” (BEIGENE, LTD., priority 2020, published 2023).

Tests used:
BTK = target: T1, BTK (Homo sapiens, UniProt Q06187); test: Cell Degradation: BTK degradation in TMD-8 cells, HTRF assay; assay type: cell-based; conditions: 6 h treatment, IC50 (DC50) of BTK degradation
T1 construct: High control=Cell group with added DMSO and without compound, indicating microplate readings without BTK degradation; endogenous in cells; host or cells: TMD-8 cells
Procedure, shortened: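 TMD-8 cells treated 6 h with 8-dose 6-fold dilutions in 0.2% DMSO, then lysed and BTK quantified by HTRF (665/620 nm). Degradation % normalised to high/low controls; DC50 from four-parameter fit, Dmax as maximal degradation.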

HEK-293 cells = test: HEK-293 Cytotoxicity Assay (CellTiter-Glo); assay type: cell-based; conditions: Homo sapiens, HEK293, 72 h incubation, CellTiter-Glo luminescence
Procedure, shortened: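 HEK-293 cells treated 72 h with 8 concentrations (4-fold dilutions, 0.2% DMSO final). Viability read by CellTiter-Glo luminescence; IC50 from four-parameter logistic fit of % inhibition.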

T1 sequence (Q06187 whole entry): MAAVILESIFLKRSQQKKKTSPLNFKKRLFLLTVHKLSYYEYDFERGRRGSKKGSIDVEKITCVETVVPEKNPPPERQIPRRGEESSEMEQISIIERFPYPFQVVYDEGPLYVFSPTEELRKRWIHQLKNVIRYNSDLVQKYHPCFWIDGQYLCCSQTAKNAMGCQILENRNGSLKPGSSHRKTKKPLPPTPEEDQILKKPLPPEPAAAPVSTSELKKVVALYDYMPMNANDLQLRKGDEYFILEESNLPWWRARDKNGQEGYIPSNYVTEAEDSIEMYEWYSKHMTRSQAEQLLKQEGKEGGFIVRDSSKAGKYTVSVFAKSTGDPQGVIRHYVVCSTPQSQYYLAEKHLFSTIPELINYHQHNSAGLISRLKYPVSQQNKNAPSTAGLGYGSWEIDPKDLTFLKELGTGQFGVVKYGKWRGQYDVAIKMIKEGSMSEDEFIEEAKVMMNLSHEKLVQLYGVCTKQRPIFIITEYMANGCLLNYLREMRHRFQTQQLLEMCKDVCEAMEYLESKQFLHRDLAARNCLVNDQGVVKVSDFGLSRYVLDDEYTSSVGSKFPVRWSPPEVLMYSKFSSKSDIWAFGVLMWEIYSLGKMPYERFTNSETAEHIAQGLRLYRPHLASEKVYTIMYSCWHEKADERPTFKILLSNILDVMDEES

DC50 (BTK) [nM] | SMILES | IC50 (HEK-293 cells) [nM]
0.52 | Cc1cc(-c2ncnc3[nH]c(-c4c(C)nn(C5CN(CC6CCN(c7ccc(N8CCC(=O)NC8=O)cc7)CC6)C5)c4C)cc23)ccc1[C@@H](C)NC(=O)c1nc(C(C)(C)C)no1 [Example 169, (R)-3-(tert-butyl)-N-(1-(4-(6-(1-(1-((1-(4-(2,4-dioxotetrahydropyrimidin-1(2H)-yl)phenyl)piperidin-4-yl)methyl)azetidin-3-yl)-3,5-dimethyl-1H-pyrazol-4-yl)-7H-pyrrolo[2,3-d]pyrimidin-4-yl)-2-methylphenyl)ethyl)-1,2,4-oxadiazole-5-carboxamide] | > 10000
0.17 | C[C@@H](NC(=O)c1nc(C(C)(C)C)no1)c1ccc(-c2ncnc3[nH]c(-c4ccc(N5CCN(CC6CCN(c7ccc(N8CCC(=O)NC8=O)cc7)CC6)CC5)cn4)cc23)cc1CO [Example 170, (R)-3-(tert-butyl)-N-(1-(4-(6-(5-(4-((1-(4-(2,4-dioxotetrahydropyrimidin-1(2H)-yl)phenyl)piperidin-4-yl)methyl)piperazin-1-yl)pyridin-2-yl)-7H-pyrrolo[2,3-d]pyrimidin-4-yl)-2-(hydroxymethyl)phenyl)ethyl)-1,2,4-oxadiazole-5-carboxamide] | > 10000
0.25 | C[C@@H](NC(=O)c1noc(C(C)(C)C)n1)c1cc(F)c(-c2ncnc3[nH]c(-c4ccc(N5CCN(CC6CCN(c7ccc(N8CCC(=O)NC8=O)cc7)CC6)CC5)cn4)cc23)cc1CO [Example 171, (R)-5-(tert-butyl)-N-(1-(4-(6-(5-(4-((1-(4-(2,4-dioxotetrahydropyrimidin-1(2H)-yl)phenyl)piperidin-4-yl)methyl)piperazin-1-yl)pyridin-2-yl)-7H-pyrrolo[2,3-d]pyrimidin-4-yl)-5-fluoro-2-(hydroxymethyl)phenyl)ethyl)-1,2,4-oxadiazole-3-carboxamide] | > 10000
0.24 | Cc1cc(-c2ncnc3[nH]c(-c4ccc(C5(O)CN(CC6CCN(c7ccc(N8CCC(=O)NC8=O)cc7)CC6)C5)cn4)cc23)ccc1[C@@H](C)NC(=O)c1nc(C(C)(C)C)no1 [Example 172, (R)-3-(tert-butyl)-N-(1-(4-(6-(5-(1-((1-(4-(2,4-dioxotetrahydropyrimidin-1(2H)-yl)phenyl)piperidin-4-yl)methyl)-3-hydroxyazetidin-3-yl)pyridin-2-yl)-7H-pyrrolo[2,3-d]pyrimidin-4-yl)-2-methylphenyl)ethyl)-1,2,4-oxadiazole-5-carboxamide] | > 10000
0.98 | Cc1cc(-c2ncnc3[nH]c(-c4ccc(C5(F)CN(CC6CCN(c7ccc(N8CCC(=O)NC8=O)cc7)CC6)C5)cn4)cc23)ccc1[C@@H](C)NC(=O)c1nc(C(C)(C)C)no1 [Example 173, (R)-3-(tert-butyl)-N-(1-(4-(6-(5-(1-((1-(4-(2,4-dioxotetrahydropyrimidin-1(2H)-yl)phenyl)piperidin-4-yl)methyl)-3-fluoroazetidin-3-yl)pyridin-2-yl)-7H-pyrrolo[2,3-d]pyrimidin-4-yl)-2-methylphenyl)ethyl)-1,2,4-oxadiazole-5-carboxamide] | > 10000
1.51 | Cc1cc(-c2ncnc3[nH]c(-c4nn(C)c(C5=CCN(CC6CCN(c7ccc(N8CCC(=O)NC8=O)cc7)CC6)CC5)c4C)cc23)ccc1[C@@H](C)NC(=O)c1nc(C(C)(C)C)no1 [Example 174, (R)-3-(tert-butyl)-N-(1-(4-(6-(5-(1-((1-(4-(2,4-dioxotetrahydropyrimidin-1(2H)-yl)phenyl)piperidin-4-yl)methyl)-1,2,3,6-tetrahydropyridin-4-yl)-1,4-dimethyl-1H-pyrazol-3-yl)-7H-pyrrolo[2,3-d]pyrimidin-4-yl)-2-methylphenyl)ethyl)-1,2,4-oxadiazole-5-carboxamide] | > 10000
1.97 | Cc1cc(-c2ncnc3[nH]c(-c4c(C)nn(C5CCN(CCNCC6CCN(c7ccc(N8CCC(=O)NC8=O)cc7)CC6)CC5)c4C)cc23)ccc1[C@@H](C)NC(=O)c1nc(C(C)(C)C)no1 [Example 175, (R)-3-(tert-butyl)-N-(1-(4-(6-(1-(1-(2-(((1-(4-(2,4-dioxotetrahydropyrimidin-1(2H)-yl)phenyl)piperidin-4-yl)methyl)amino)ethyl)piperidin-4-yl)-3,5-dimethyl-1H-pyrazol-4-yl)-7H-pyrrolo[2,3-d]pyrimidin-4-yl)-2-methylphenyl)ethyl)-1,2,4-oxadiazole-5-carboxamide] | 7360
1.1 | Cc1cc(-c2ncnc3[nH]c(-c4ccc(C5CCN(CC6CCN(c7ccc(N8CCC(=O)NC8=O)cc7)CC6)C5)cn4)cc23)ccc1[C@@H](C)NC(=O)c1nc(C(C)(C)C)no1 (stereo partly drawn) [Example 176, 3-(tert-butyl)-N-((1R)-1-(4-(6-(5-(1-((1-(4-(2,4-dioxotetrahydropyrimidin-1(2H)-yl)phenyl)piperidin-4-yl)methyl)pyrrolidin-3-yl)pyridin-2-yl)-7H-pyrrolo[2,3-d]pyrimidin-4-yl)-2-methylphenyl)ethyl)-1,2,4-oxadiazole-5-carboxamide] | > 10000
0.99 | Cc1cc(-c2ncnc3[nH]c(-c4ccc(C5(F)CCN(CC6CCN(c7ccc(N8CCC(=O)NC8=O)cc7)CC6)C5)cn4)cc23)ccc1[C@@H](C)NC(=O)c1nc(C(C)(C)C)no1 (stereo partly drawn) [Example 177, 3-(tert-butyl)-N-((1R)-1-(4-(6-(5-(1-((1-(4-(2,4-dioxotetrahydropyrimidin-1(2H)-yl)phenyl)piperidin-4-yl)methyl)-3-fluoropyrrolidin-3-yl)pyridin-2-yl)-7H-pyrrolo[2,3-d]pyrimidin-4-yl)-2-methylphenyl)ethyl)-1,2,4-oxadiazole-5-carboxamide] | > 10000
0.44 | C[C@@H](NC(=O)c1nc(C(C)(C)C)no1)c1cc(F)c(-c2ncnc3[nH]c(-c4ccc(N5CCN(CC6CCN(c7ccc(N8CCC(=O)NC8=O)cc7)CC6)CC5)cn4)cc23)cc1CO [Example 178, (R)-3-(tert-butyl)-N-(1-(4-(6-(5-(4-((1-(4-(2,4-dioxotetrahydropyrimidin-1(2H)-yl)phenyl)piperidin-4-yl)methyl)piperazin-1-yl)pyridin-2-yl)-7H-pyrrolo[2,3-d]pyrimidin-4-yl)-5-fluoro-2-(hydroxymethyl)phenyl)ethyl)-1,2,4-oxadiazole-5-carboxamide] | > 10000
0.74 | Cc1cc(-c2ncnc3[nH]c(-c4ccc(C5CN(CC6CCN(c7ccc(N8CCC(=O)NC8=O)cc7)CC6)C5)nc4)cc23)ccc1[C@@H](C)NC(=O)c1nc(C(C)(C)C)no1 [Example 179, (R)-3-(tert-butyl)-N-(1-(4-(6-(6-(1-((1-(4-(2,4-dioxotetrahydropyrimidin-1(2H)-yl)phenyl)piperidin-4-yl)methyl)azetidin-3-yl)pyridin-3-yl)-7H-pyrrolo[2,3-d]pyrimidin-4-yl)-2-methylphenyl)ethyl)-1,2,4-oxadiazole-5-carboxamide] | 6040
0.52 | Cc1cc(-c2ncnc3[nH]c(-c4ccc(C5(O)CCN(CC6CCN(c7ccc(N8CCC(=O)NC8=O)cc7)CC6)C5)cn4)cc23)ccc1[C@@H](C)NC(=O)c1nc(C(C)(C)C)no1 (stereo partly drawn) [Example 180, 3-(tert-butyl)-N-((1R)-1-(4-(6-(5-(1-((1-(4-(2,4-dioxotetrahydropyrimidin-1(2H)-yl)phenyl)piperidin-4-yl)methyl)-3-hydroxypyrrolidin-3-yl)pyridin-2-yl)-7H-pyrrolo[2,3-d]pyrimidin-4-yl)-2-methylphenyl)ethyl)-1,2,4-oxadiazole-5-carboxamide] | 985
